Assay results reported in patent US20160008382A1, “METHODS OF TREATMENT OF CANCER” (Millennium Pharmaceuticals, Inc., priority 2012, published 2016).

Key:
[1] = tested on: relapsed or refractory mantle cell lymphoma; details: patients with relapsed or refractory mantle cell lymphoma, Phase II; cited from earlier work
nasopharyngeal cancer = assay: Treatment of nasopharyngeal cancer patients with the compound of formula (III-A), IV twice-weekly; clinical response; assay type: in vivo, human
Experimental: (1) Tissue Microarray (obtained from US Biomax, Inc.) of primary nasopharyngeal cancer (n=35) (2) Tissue Microarray of metastatic nasopharyngeal cancer (obtained from US Biomax, Inc.) (n=15) (3) Tissue Microarray of other histologies of head and neck cancers (obtained from US Biomax, Inc.) (n=68) (4) Archival primary tumor biopsy samples of patients with head and neck squamous cell cancers (n=14). All samples were obtained under the appropriate informed consent. The patients were administered the compound of formula (III-A) on a twice-weekly schedule (days 1, 4, 8 and 11 of a 21-day cycle) as an IV injection. Of the primary tumor samples in (4), there were three patients with nasopharyngeal cancer.

[2] = tested on: hematological and solid tumor xenograft models; details: range of hematological and solid tumor xenograft models; cited from earlier work
[3] = on exposure to aqueous solution or plasma; cited from earlier work

Row | SMILES | activity in patients [1] | clinical response, Patient 1 (nasopharyngeal cancer; Patient 1, metastatic nasopharyngeal cancer of a squamous cell type, IV injection days 1, 4, 8 and 11 of a 21-day cycle, NFκB p65 H-score 300) | Responder/Non-responder, Patient 1 (nasopharyngeal cancer; Patient 1, nasopharyngeal cancer, NFκB p65 IHC assay H-score 300) | disease progression, Patient 2 (time to progression) (nasopharyngeal cancer; Patient 2, nasopharyngeal cancer, IV injection days 1, 4, 8 and 11 of a 21-day cycle, NFκB p65 H-score 200) [cycles] | Responder/Non-responder, Patient 2 (nasopharyngeal cancer; Patient 2, nasopharyngeal cancer, NFκB p65 IHC assay H-score 200) | clinical response, Patient 3 (nasopharyngeal cancer; Patient 3, nasopharyngeal cancer, IV injection days 1, 4, 8 and 11 of a 21-day cycle, NFκB p65 H-score 160) | Responder/Non-responder, Patient 3 (nasopharyngeal cancer; Patient 3, nasopharyngeal cancer, NFκB p65 IHC assay H-score 160) | anti-tumor activity in xenograft models [2] | hydrolysis to the active form MLN2238 [3]
1 | CC(C)C[C@H](NC(=O)[C@H](Cc1ccccc1)NC(=O)c1cnccn1)B(O)O [bortezomib, N-2-pyrazinecarbonyl-L-phenylalanine-L-leucineboronic acid] | activity |  |  |  |  |  |  |  | 
2 | CC(C)C[C@H](NC(=O)CNC(=O)c1cc(Cl)ccc1Cl)B1OC(=O)C(CC(=O)O)(CC(=O)O)O1 [compound of formula (III-A), 2,2′-{2-[(1R)-1-({[(2,5-dichlorobenzoyl)amino]acetyl}amino)-3-methylbutyl]-5-oxo-1,3,2-dioxaborolane-4,4-diyl}diacetic acid] |  | durable partial response | Responder | ≤ 4 | Non-responder | progressive disease | Non-responder | anti-tumor activity | rapidly hydrolyzes
